# Values of other authors, collected in patent publication US7309714B2, “Phenylalanine derivatives as dipeptidyl peptidase inhibitors for the treatment or prevention of diabetes” (Merck & Co., Inc., priority 2003, dated 2007).
# Key:
# hematopoiesis = details: mouse, cyclophosphamide-induced neutropenia
# DP-IV = target: T1, DP-IV (Homo sapiens, UniProt P27487)
# T1 construct: GRF is rapidly degraded in plasma to GRF[3-44]; from tissue
# cardiac allograft = details: rats; survival doubled from day 7 to day 14
# T1 sequence (P27487 whole entry): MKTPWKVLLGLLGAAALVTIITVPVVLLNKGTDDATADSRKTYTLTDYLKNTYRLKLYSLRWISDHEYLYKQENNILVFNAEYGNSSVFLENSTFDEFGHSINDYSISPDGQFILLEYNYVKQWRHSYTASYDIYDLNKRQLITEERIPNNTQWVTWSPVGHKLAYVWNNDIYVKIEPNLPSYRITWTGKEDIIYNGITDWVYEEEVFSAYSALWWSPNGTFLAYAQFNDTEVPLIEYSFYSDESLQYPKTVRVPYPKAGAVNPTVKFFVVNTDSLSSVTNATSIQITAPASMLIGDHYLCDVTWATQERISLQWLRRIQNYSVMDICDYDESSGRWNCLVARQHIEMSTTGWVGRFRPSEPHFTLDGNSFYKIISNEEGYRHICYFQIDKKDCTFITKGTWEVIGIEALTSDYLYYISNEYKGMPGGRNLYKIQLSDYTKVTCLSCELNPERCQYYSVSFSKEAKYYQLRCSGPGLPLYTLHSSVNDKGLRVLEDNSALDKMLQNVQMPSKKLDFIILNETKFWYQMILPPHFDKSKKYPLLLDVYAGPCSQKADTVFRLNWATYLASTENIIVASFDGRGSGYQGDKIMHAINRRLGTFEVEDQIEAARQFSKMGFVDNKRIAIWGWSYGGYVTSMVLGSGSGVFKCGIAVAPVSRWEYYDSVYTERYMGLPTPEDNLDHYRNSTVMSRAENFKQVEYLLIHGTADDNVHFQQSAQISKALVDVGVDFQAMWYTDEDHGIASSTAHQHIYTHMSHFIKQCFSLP
smiles,measurement,setting,value
CC(C)[C@H](N)C(=O)N1CCC[C@H]1B(O)O [Val-Boro-Pro],effect on hematopoiesis,hematopoiesis,stimulated hematopoiesis
CC[C@H](C)[C@H](N)C(=O)N1CCC[C@H]1C(=O)N[C@H](C(=O)O)[C@@H](C)CC [diprotin A],effect on degradation of GRF to GRF[3-44] in plasma,DP-IV,prevented
"CC(C)N1CCC(c2ccccc2)(c2ccccc2)CC1 [Prodipine, Pro-Pro-diphenyl-phosphonate]",cardiac allograft survival,cardiac allograft,14 day
